Structures are written as SMILES. pIC50: −log10 of the molar value.

The target of this experiment is T1, human S1P1 receptors (Homo sapiens, UniProt P21453).
T1 construct: host or cells: HEK293
T1 sequence (P21453 whole entry): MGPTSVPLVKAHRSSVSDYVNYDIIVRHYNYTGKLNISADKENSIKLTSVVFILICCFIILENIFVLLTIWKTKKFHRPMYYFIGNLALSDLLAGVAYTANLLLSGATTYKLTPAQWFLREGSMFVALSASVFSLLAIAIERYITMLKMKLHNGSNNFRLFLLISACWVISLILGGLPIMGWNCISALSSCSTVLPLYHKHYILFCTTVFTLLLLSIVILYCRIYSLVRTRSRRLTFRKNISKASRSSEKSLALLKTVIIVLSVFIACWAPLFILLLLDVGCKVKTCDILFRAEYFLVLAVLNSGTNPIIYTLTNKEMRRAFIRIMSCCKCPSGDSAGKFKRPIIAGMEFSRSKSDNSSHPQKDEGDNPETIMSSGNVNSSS
Nature of the experiment: S1P1R antagonist assay (fluorescent membrane potential dye, cAMP readout). The following applies: HEK293 cells expressing human S1P1 receptors and CNG channel; 500 nM NECA; S1P1R agonist 10 nM; 90 minutes; read-out: EC50 or IC50 value. The format is cell-based.
In general, pIC50 refers to −log10 of the IC50, conventionally taken in molar units. Consider `Cn1cnc(CC(=O)N[C@@H](COCc2ccccc2)C(=O)Nc2ccc(Oc3ccccc3)cc2)c1` [Compound 195, (S)-2-(2-(1-methyl-1H-imidazol-4-yl)acetamido)-3-benzyloxy-N-(4-phenoxyphenyl)propanamide], for which the pIC50 is at least 6.52.

As to `O=C(CN1CCCC2CCCCC21)N[C@@H](COCc1ccccc1)C(=O)Nc1ccc(Oc2ccc(F)cc2)cc1` (stereo partly drawn) [Compound 45, (2S)-3-(benzyloxy)-N-(4-(4-fluorophenoxy)phenyl)-2-(2-(octahydroquinolin-1(2H)-yl)acetamido)propanamide], the pIC50 is under 6.00.

For the compound `O=C(Cc1ccc(F)cc1F)NC(COCc1ccccc1)C(=O)Nc1ccc(Oc2ccccc2)cc1` (centres unmarked) [Compound 363, N-(2-oxo-1-{[(phenylmethyl)oxy]methyl}-2-{[4-(phenyloxy)phenyl]amino}ethyl)-2-(2,4-difluorophenyl)acetamide], the pIC50 was under 6.00.

Consider `O=C(CCCC(=O)c1ccccc1)NC(COCc1ccccc1)C(=O)Nc1ccc(Oc2ccccc2)cc1` (centres unmarked) [Compound 318, 5-oxo-N-(2-oxo-1-{[(phenylmethyl)oxy]methyl}-2-{[4-(phenyloxy)phenyl]amino}ethyl)-5-phenylpentanamide], for which the negative logarithm of the IC50 (pIC50) was under 6.00.

As to `O=C(Nc1ccc(Oc2ccc(F)cc2)cc1)[C@@H]1C[C@@H](c2ccccc2)CN1C(=O)Cn1nccn1` [Compound 77, (2S,4S)-1-(2-(2H-1,2,3-triazol-2-yl)acetyl)-N-(4-(4-fluorophenoxy)phenyl)-4-phenylpyrrolidine-2-carboxamide], the negative logarithm of the IC50 (pIC50) was 6.00 to 6.52.

Regarding `O=C(Nc1ccc(Oc2ccc(F)cc2)cc1)[C@@H]1C[C@@H](Cc2ccccc2F)CN1C(=O)Cn1ccnn1` [Compound 264, (2S,4R)-1-(2-(1H-1,2,3-triazol-1-yl)acetyl)-4-(2-fluorobenzyl)-N-(4-(4-fluorophenoxy)phenyl)pyrrolidine-2-carboxamide], the pIC50 was at least 6.52.

Regarding `Cc1cc(F)ccc1C[C@@H]1C[C@@H](C(=O)Nc2ccc(Oc3ccc(F)cc3)cc2)N(C(=O)Cn2cncn2)C1` [Compound 8, (2S,4R)-1-(2-(1H-1,2,4-triazol-1-yl)acetyl)-4-(4-fluoro-2-methylbenzyl)-N-(4-(4-fluorophenoxy)phenyl)pyrrolidine-2-carboxamide], the pIC50 is at least 6.52.

On to `O=C(CN1CCN(CC2CCCO2)CC1)N[C@@H](COCc1ccccc1)C(=O)Nc1ccc(Oc2ccc(F)cc2)cc1` (stereo partly drawn) [Compound 110, (2S)-3-(benzyloxy)-N-(4-(4-fluorophenoxy)phenyl)-2-(2-(4-((tetrahydrofuran-2-yl)methyl)piperazin-1-yl)acetamido)propanamide], for which the pIC50 was under 6.00.

On to `O=C(Nc1ccc(Oc2ccc(F)cc2)cc1)[C@@H]1C[C@@H](Cc2cccc(Cl)c2)CN1C(=O)Cn1nccn1` [Compound 268, (2S,4R)-1-(2-(2H-1,2,3-triazol-2-yl)acetyl)-4-(3-chlorobenzyl)-N-(4-(4-fluorophenoxy)phenyl)pyrrolidine-2-carboxamide], for which the pIC50 was at least 6.52.

As for `O=C(Nc1ccc(Oc2ccc(F)cc2)cc1)[C@@H]1C[C@@H](Cc2ccccc2)CN1C(=O)Cc1c[nH]c2ccccc12` [Compound 98, (2S,4R)-1-(2-(1H-indol-3-yl)acetyl)-4-benzyl-N-(4-(4-fluorophenoxy)phenyl)pyrrolidine-2-carboxamide], the pIC50 is at least 6.52.

Turning to `C=CCCC(=O)NC(COCc1ccccc1)C(=O)Nc1ccc(Oc2ccccc2)cc1` (centres unmarked) [Compound 298, N-(2-oxo-1-{[(phenylmethyl)oxy]methyl}-2-{[4-(phenyloxy)phenyl]amino}ethyl)pent-4-enamide], the pIC50 is under 6.00.

As to `O=C(Nc1ccc(Oc2ccc(F)cc2)cc1)[C@@H]1C[C@@H](Cc2ccc(F)cc2F)CN1C(=O)Cn1nccn1` [Compound 52, (2S,4R)-1-(2-(2H-1,2,3-triazol-2-yl)acetyl)-4-(2,4-difluorobenzyl)-N-(4-(4-fluorophenoxy)phenyl)pyrrolidine-2-carboxamide], the pIC50 was at least 6.52.

Take `O=C(Cc1ccc(OCc2ccccc2)cc1)NC(COCc1ccccc1)C(=O)Nc1ccc(Oc2ccccc2)cc1` (centres unmarked) [Compound 271, 4-benzyloxy-N-(2-oxo-1-{[(phenylmethyl)oxy]methyl}-2-{[4-(phenyloxy)phenyl]amino}ethyl)phenylacetamide]: the pIC50 was under 6.00.

Take `O=C(Nc1ccc(Oc2ccc(F)cc2)cc1)[C@@H]1C[C@@H](Cc2ccccc2)CN1C(=O)CSc1ncccn1` [Compound 94, (2S,4R)-4-benzyl-N-(4-(4-fluorophenoxy)phenyl)-1-(2-(pyrimidin-2-ylthio)acetyl)pyrrolidine-2-carboxamide]: the pIC50 is at least 6.52.

As for `O=C(Cc1ccccc1Cl)NC(COCc1ccccc1)C(=O)Nc1ccc(Oc2ccccc2)cc1` (centres unmarked) [Compound 391, N-(2-oxo-1-{[(phenylmethyl)oxy]methyl}-2-{[4-(phenyloxy)phenyl]amino}ethyl)-2-(2-chlorophenyl)acetamide], the pIC50 is under 6.00.

As to `O=C(NC(COCc1ccccc1)C(=O)Nc1ccc(Oc2ccccc2)cc1)c1cc2ccccc2[nH]1` (centres unmarked) [Compound 386, N-(2-oxo-1-{[(phenylmethyl)oxy]methyl}-2-{[4-(phenyloxy)phenyl]amino}ethyl)-1H-indole-2-carboxamide], the pIC50 was under 6.00.

Take `O=C(CCc1cccs1)NC(COCc1ccccc1)C(=O)Nc1ccc(Oc2ccccc2)cc1` (centres unmarked) [Compound 403, N-(2-oxo-1-{[(phenylmethyl)oxy]methyl}-2-{[4-(phenyloxy)phenyl]amino}ethyl)-3-(thiophen-2-yl)propanamide]: the pIC50 is 6.00 to 6.52.

For `O=C(NC(COCc1ccccc1)C(=O)Nc1ccc(Oc2ccccc2)cc1)c1ccc(Cl)cc1` (centres unmarked) [Compound 276, 4-chloro-N-(2-oxo-1-{[(phenylmethyl)oxy]methyl}-2-{[4-(phenyloxy)phenyl]amino}ethyl)benzamide], the pIC50 is under 6.00.

Turning to `Cc1cn(CC(=O)N[C@@H](COCc2ccccc2)C(=O)Nc2ccc(Oc3ccc(F)cc3)cc2)nn1` [Compound 153, (S)-3-(benzyloxy)-N-(4-(4-fluorophenoxy)phenyl)-2-(2-(4-methyl-1H-1,2,3-triazol-1-yl)acetamido)propanamide], the negative logarithm of the IC50 (pIC50) is at least 6.52.

In the case of `CS(=O)(=O)c1ccc(C(=O)NC(COCc2ccccc2)C(=O)Nc2ccc(Oc3ccccc3)cc2)c(Cl)c1` (centres unmarked) [Compound 334, 2-chloro-4-(methylsulfonyl)-N-(2-oxo-1-{[(phenylmethyl)oxy]methyl}-2-{[4-(phenyloxy)phenyl]amino}ethyl)benzamide], the pIC50 is under 6.00.

For `O=C(Cc1cnc[nH]1)N[C@@H](CCc1ccccc1)C(=O)Nc1ccc(Oc2ccc(Cl)cc2)cc1` [Compound 157, (S)-2-(2-(1H-imidazol-5-yl)acetamido)-N-(4-(4-chlorophenoxy)phenyl)-4-phenylbutanamide], the negative-log IC50 (pIC50) was at least 6.52.

As to `Cc1n[nH]c(C)c1CC(=O)N[C@@H](COCc1ccc(F)cc1)C(=O)Nc1ccc(Oc2ccc(F)cc2)cc1` [Compound 258, (S)-2-(2-(3,5-dimethyl-1H-pyrazol-4-yl)acetamido)-3-(4-fluorobenzyloxy)-N-(4-(4-fluorophenoxy)phenyl)propanamide], the pIC50 was at least 6.52.

Consider `COc1ccc2[nH]c(C)c(CC(=O)NC(COCc3ccccc3)C(=O)Nc3ccc(Oc4ccccc4)cc3)c2c1` (centres unmarked) [Compound 352, N-(2-oxo-1-{[(phenylmethyl)oxy]methyl}-2-{[4-(phenyloxy)phenyl]amino}ethyl)-2-(5-methoxy-2-methyl-1H-indol-3-yl)acetamide], for which the pIC50 is under 6.00.

The values above are taken from patent publication US8791102B2, “Acetanilide sphingosine-1-phosphate receptor antagonists” (Exelixis, Inc., priority 2008, dated 2014).
